Assay results as given in PubChem BioAssay (NCI).
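48-hour exposure; five concentrations; linearly interpolated endpoints. GI50 = concentration required for 50% inhibition of growth. TGI: concentration producing complete growth inhibition.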

Columns and labels:
Test in all cases: growth of human tumour cells (NCI), 48 h
[1] = tested on: 786-0 renal
[2] = tested on: A498 renal
[3] = tested on: A549 NSCLC
[4] = tested on: ACHN renal
[5] = tested on: BT-549 breast
[6] = tested on: CAKI-1 renal
[7] = tested on: CCRF-CEM leukemia
[8] = tested on: COLO 205 colon
[9] = tested on: DU-145 prostate
[10] = tested on: HCC-2998 colon
[11] = tested on: HCT-116 colon
[12] = tested on: HCT-15 colon
[13] = tested on: HL-60(TB) leukemia
[14] = tested on: HOP-62 NSCLC
[15] = tested on: HOP-92 NSCLC
[16] = tested on: HS 578T breast
[17] = tested on: HT29 colon
[18] = tested on: IGROV1 ovarian
[19] = tested on: K-562 leukemia
[20] = tested on: KM12 colon
[21] = tested on: LOX IMVI melanoma
[22] = tested on: M14 melanoma
[23] = tested on: MALME-3M melanoma
[24] = tested on: MCF7 breast
[25] = tested on: MDA-MB-231 breast
[26] = tested on: MDA-MB-435
[27] = tested on: MOLT-4 leukemia
[28] = tested on: NCI-H226 lung
[29] = tested on: NCI-H23 lung
[30] = tested on: NCI-H460 lung
[31] = tested on: NCI-H522 lung
[32] = tested on: NCI/ADR-RES ovarian
[33] = tested on: OVCAR-3 ovarian
[34] = tested on: OVCAR-4 ovarian
[35] = tested on: OVCAR-5 ovarian
[36] = tested on: OVCAR-8 ovarian
[37] = tested on: PC-3 prostate
[38] = tested on: RPMI-8226 leukemia
[39] = tested on: SF-268 CNS
[40] = tested on: SF-295 CNS
[41] = tested on: SF-539 CNS
[42] = tested on: SK-MEL-2 melanoma
[43] = tested on: SK-MEL-28 melanoma
[44] = tested on: SK-MEL-5 melanoma
[45] = tested on: SK-OV-3 ovarian
[46] = tested on: SN12C renal
[47] = tested on: SNB-19 CNS
[48] = tested on: SNB-75 CNS
[49] = tested on: SR leukemia
[50] = tested on: SW-620 colon
[51] = tested on: T-47D breast
[52] = tested on: TK-10 renal
[53] = tested on: U251 CNS
[54] = tested on: UACC-257 melanoma
[55] = tested on: UACC-62 melanoma
[56] = tested on: UO-31 renal

`CN(C)CCCNCc1ccc(-c2ccc(F)c(Cl)c2)o1` showed a GI50 [1] of 10.8 µM, a TGI [1] of 23.7 µM and a GI50 [2] of 3.22 µM. For the same compound, the TGI [2] was 18.7 µM, the GI50 [3] was 16.1 µM and the TGI [3] was 31.8 µM. It also gave a GI50 [4] of 15.9 µM, a TGI [4] of 32.7 µM and a GI50 [5] of 11.8 µM. The TGI [5] was 26 µM, the GI50 [6] was 12.6 µM and the TGI [6] was 27.3 µM. For the same compound, the GI50 [7] was 9.71 µM, the TGI [7] was 26.3 µM and the GI50 [8] was 4.52 µM. It also gave a TGI [8] of 15.5 µM, a GI50 [9] of 16.6 µM and a TGI [9] of 30.6 µM. The GI50 [10] was 13 µM, the TGI [10] was 25.9 µM and the GI50 [11] was 8.33 µM. For the same compound, the TGI [11] was 25 µM, the GI50 [12] was 12.2 µM and the TGI [12] was 32.4 µM. For the same compound, the GI50 [13] was 14.1 µM, the TGI [13] was 30.7 µM and the GI50 [14] was 14.5 µM. The TGI [14] was 28.2 µM, the GI50 [15] was 3.06 µM and the TGI [15] was 20 µM. It also gave a GI50 [16] of 10.3 µM, a TGI [16] of 26.8 µM and a GI50 [17] of 6.18 µM. It also gave a TGI [17] of 20.4 µM, a GI50 [18] of 13.5 µM and a TGI [18] of 32.2 µM. The GI50 [19] was 3.06 µM, the TGI [19] was 10.2 µM and the GI50 [20] was 14.5 µM. For the same compound, the TGI [20] was 29.2 µM, the GI50 [21] was 5.23 µM and the TGI [21] was 18.2 µM. For the same compound, the GI50 [22] was 7.2 µM, the TGI [22] was 22 µM and the GI50 [23] was 16 µM. The TGI [23] was 33.5 µM, the GI50 [24] was 10.1 µM and the TGI [24] was 23.4 µM. The GI50 [25] was 9.89 µM, the TGI [25] was 22.3 µM and the GI50 [26] was 5.58 µM. For the same compound, the TGI [26] was 20.5 µM, the GI50 [27] was 11.5 µM and the TGI [27] was 28 µM. It also gave a GI50 [28] of 16.8 µM, a TGI [28] of 35 µM and a GI50 [29] of 14.7 µM. For the same compound, the TGI [29] was 31.5 µM, the GI50 [30] was 14.3 µM and the TGI [30] was 29.8 µM. The GI50 [31] was 13.6 µM, the TGI [31] was 30 µM and the GI50 [32] was 15.7 µM. The TGI [32] was 33.4 µM, the GI50 [33] was 15.4 µM and the TGI [33] was 29.8 µM. For the same compound, the GI50 [34] was 13 µM, the TGI [34] was 35.8 µM and the GI50 [35] was 15.5 µM. The TGI [35] was 33.6 µM, the GI50 [36] was 16.2 µM and the TGI [36] was 36.5 µM. For the same compound, the GI50 [37] was 12.2 µM, the TGI [37] was 26.5 µM and the GI50 [38] was 10.7 µM. It also gave a TGI [38] of 29.9 µM, a GI50 [39] of 12.1 µM and a TGI [39] of 24.8 µM. For the same compound, the GI50 [40] was 14.3 µM, the TGI [40] was 31.2 µM and the GI50 [41] was 12.9 µM. It also gave a TGI [41] of 27.9 µM, a GI50 [42] of 15.9 µM and a TGI [42] of 31.2 µM. It also gave a GI50 [43] of 10.2 µM, a TGI [43] of 22.1 µM and a GI50 [44] of 3.69 µM. For the same compound, the TGI [44] was 13.9 µM, the GI50 [45] was 16.9 µM and the TGI [45] was 31.1 µM. For the same compound, the GI50 [46] was 12.1 µM, the TGI [46] was 26.6 µM and the GI50 [47] was 15.3 µM. It also gave a TGI [47] of 32.8 µM, a GI50 [48] of 1230 nM and a TGI [48] of 18.1 µM. The GI50 [49] was 2960 nM, the TGI [49] was 8.37 µM and the GI50 [50] was 14 µM. The TGI [50] was 30.3 µM, the GI50 [51] was 11.8 µM and the TGI [51] was 28.3 µM. For the same compound, the GI50 [52] was 16.3 µM, the TGI [52] was 31.5 µM and the GI50 [53] was 14.4 µM. For the same compound, the TGI [53] was 30.7 µM, the GI50 [54] was 3.81 µM and the TGI [54] was 13.8 µM. For the same compound, the GI50 [55] was 1880 nM, the TGI [55] was 3.79 µM and the GI50 [56] was 12.3 µM. The TGI [56] was 26.9 µM.
